Reference: patent US20110028518A1, “DEXLANSOPRAZOLE PROCESS AND POLYMORPHS” (DR. REDDY'S LABORATORIES LTD., priority 2008, published 2011)

Experiment: Storage stability studies (Example 27): appearance, PXRD, HPLC purity, impurities and chiral purity
Assay type: physicochemical
Conditions: for Chiral Purity / Highest Impurity / Purity / Sulfide / Sulfone: HPLC
Description: A high performance liquid chromatography (HPLC) method for measuring the chemical purity of dexlansoprazole or a compound of formula (VII) of the present application, and for determination of their corresponding impurities, involves the use of a YMC-PAK ODS-A 100×4.6, 3 μm or equivalent column.
A high performance liquid chromatography method useful for measuring the enantiomeric purity of dexlansoprazole or a compound of formula (VII) of the present application involves the use of a Chiralpak-IC, 250×4.6 mm or equivalent column.
Products from certain of the above examples and a crystalline dexlansoprazole, prepared according to Example 2 of U.S. Pat. No. 6,462,058, were tested for their storage stabilities. The samples were stored in tied clear polyethylene bags that were placed in sealed black polyethylene bags along with a silica gel desiccant pouch filled with nitrogen, and finally the black bags were placed into triple laminated foil bags along with a silica gel pouch and then sealed and stored in HDPE drum packages under the conditions noted in the following results tables. Samples were analyzed before storage, at intervals during storage, and after storage.
Samples were analyzed by HPLC for chemical purity, for:
a “sulfide” impurity, having a chemical name 2-[[{4-(2,2,2-trifluoroethoxy)-3-methylpyridine-2-yl}methyl]thio]-1H-benzimidazole and the following structure;
a “sulfone” impurity, having a chemical name 2-[[{4-(2,2,2-trifluoroethoxy)-3-methylpyridine-2-yl}methyl]sulfonyl]-1H-benzimidazole and the following structure;
and for chiral purity. Also given in the tables is the concentration of the highest unidentified impurity, as determined by HPLC, and the PXRD analysis result. All percentages given below are expressed on a weight basis.

[1] = Initial Analysis, before storage

In the case of `Cc1c(OCC(F)(F)F)ccnc1C[S@@+]([O-])c1nc2ccccc2[nH]1` [Crystalline Drug, dexlansoprazole], the Appearance (After 1 Week at 2-8° C.) is reported as “Cream color”, the PXRD (After 1 Week at 2-8° C.) is reported as “Crystalline” and the “Chiral Purity” value (After 1 Week at 2-8° C.) is reported as 88.02%. The “Highest Impurity” value (After 1 Week at 2-8° C.) was 0.14%, the Purity (After 1 Week at 2-8° C.) was 95.39% and the Sulfide (After 1 Week at 2-8° C.) was 2.48%. For the same compound, the Sulfone (After 1 Week at 2-8° C.) was 1.68%, the Appearance (After 1 Week at 25-35° C.) was “Cream color” and the PXRD (After 1 Week at 25-35° C.) was “Crystalline”. The “Chiral Purity” value (After 1 Week at 25-35° C.) was 87.8%, the “Highest Impurity” value (After 1 Week at 25-35° C.) was 0.14% and the Purity (After 1 Week at 25-35° C.) was 95.28%. The Sulfide (After 1 Week at 25-35° C.) was 2.48%, the Sulfone (After 1 Week at 25-35° C.) was 1.77% and the Appearance (After 2 Weeks at 2-8° C.) was “Cream color”. The PXRD (After 2 Weeks at 2-8° C.) was “Crystalline”, the “Chiral Purity” value (After 2 Weeks at 2-8° C.) was 88.49% and the “Highest Impurity” value (After 2 Weeks at 2-8° C.) was 0.13%. For the same compound, the Purity (After 2 Weeks at 2-8° C.) was 95.19%, the Sulfide (After 2 Weeks at 2-8° C.) was 2.36% and the Sulfone (After 2 Weeks at 2-8° C.) was 1.62%. For the same compound, the Appearance (After 2 Weeks at 25-35° C.) was “Cream color”, the PXRD (After 2 Weeks at 25-35° C.) was “Crystalline” and the “Chiral Purity” value (After 2 Weeks at 25-35° C.) was 88.34%. For the same compound, the “Highest Impurity” value (After 2 Weeks at 25-35° C.) was 0.13%, the Purity (After 2 Weeks at 25-35° C.) was 95.19% and the Sulfide (After 2 Weeks at 25-35° C.) was 2.36%. The Sulfone (After 2 Weeks at 25-35° C.) was 1.62%, the Appearance (After 3 Weeks at 2-8° C.) was “Cream color” and the PXRD (After 3 Weeks at 2-8° C.) was “Crystalline”. For the same compound, the “Chiral Purity” value (After 3 Weeks at 2-8° C.) was 88.34%, the “Highest Impurity” value (After 3 Weeks at 2-8° C.) was 0.14% and the Purity (After 3 Weeks at 2-8° C.) was 95.65%. The Sulfide (After 3 Weeks at 2-8° C.) was 2.31%, the Sulfone (After 3 Weeks at 2-8° C.) was 1.61% and the Appearance (After 3 Weeks at 25-35° C.) was “Cream color”. For the same compound, the PXRD (After 3 Weeks at 25-35° C.) was “Crystalline”, the “Chiral Purity” value (After 3 Weeks at 25-35° C.) was 88.27% and the “Highest Impurity” value (After 3 Weeks at 25-35° C.) was 0.13%. It also gave a Purity (After 3 Weeks at 25-35° C.) of 95.4%, a Sulfide (After 3 Weeks at 25-35° C.) of 2.39% and a Sulfone (After 3 Weeks at 25-35° C.) of 1.65%. For the same compound, the Appearance [1] was “Cream color”, the PXRD [1] was “Crystalline” and the “Chiral Purity” value [1] was 88.13%. The “Highest Impurity” value [1] was 0.15%, the Purity [1] was 95.4% and the Sulfide [1] was 2.41%. It also gave a Sulfone [1] of 1.66%.
